These are literature values, as cited in PMC11444200, “In Vitro Evaluation of Antipseudomonal Activity and Safety Profile of Peptidomimetic Furin Inhibitors” (Biomedicines, 2024).

The subject of one series is CYP3A4. Conditions: cited from earlier work.
The next series concerns the target furin. Conditions: read-out: Ki (furin); cited from earlier work.
For series [1], the system named is Mas-related G protein–coupled receptor X2 (MRGPRX2). Also noted: method as in PMID 38385828. Conditions: compared to MI-1851 and MI-2415; cited from earlier work.
On the set-up of series [2]: method as in PMID 29059503. Conditions: cited from earlier work.
The next series deals with mice. To be noted: mice, cited from earlier work.

Like-named read-outs stand apart in the source and are kept apart here.

With `N=C(N)c1cccc(C[C@H](NS(=O)(=O)c2cccc(-c3ccc(Cl)cc3Cl)c2)C(=O)N2CCC(CCN)CC2)c1.O=C(O)C(F)(F)F.O=C(O)C(F)(F)F` [MI-432], the CYP3A4 inhibition result in the series on CYP3A4 (compared with MI-1851 and MI-2415) was “inhibit CYP3A4 already at considerably lower concentrations”.
A word on the Ki: it is a dissociation constant, usually derived from enzyme kinetics or from competition with a known ligand. As to `CC(C)(C)[C@H](NC(=O)[C@H](CCCN=C(N)N)NC(=O)Cc1ccc(CN=C(N)N)cc1)C(=O)N[C@@H](CCCN=C(N)N)C(=O)NCc1ccc(C(=N)N)cc1` [MI-1148, 4-guanidinomethyl-phenylacetyl-Arg-Tle-Arg-4-Amba, reference compound], on furin, the Ki was 5.5 pM. Moreover, the “activation of MRGPRX2” value in series [1] is listed as “much stronger activation”. The “stability in human plasma” value in series [2] is “high stability”. In addition, the mortality entry in the series on mice (5 mg/kg i.p.) was “all four mice died”. In addition, the maximum tolerated dose in the series with mice (i.p.) is listed as 2.5 mg/kg.
`COc1ccc(-c2cccc(S(=O)(=O)N[C@@H](Cc3cccc(C(=N)N)c3)C(=O)N3CCN(C(=O)NC4CCCCC4)CC3)c2)c(OC)c1` [MI-1900]: in the series with CYP3A4, the CYP3A4 inhibition entry is “inhibit CYP3A4 already at considerably lower concentrations”.
